In the NIST ThermoML archive (doi:10.1021/je1006357):

Experiments:
[1] = for viscosity / speed of sound / mass density: 101.33 kPa, Liquid; for viscosity: Capillary tube (Ostwald / Ubbelohde) method; for speed of sound: Pulse-echo method; for mass density: Vibrating tube method; for Normal melting temperature: Crystal, DTA
[2] = refractive index (Na D-line) (dimensionless); conditions: 101.33 kPa, Liquid, Standard Abbe refractometry

CCCC[N+]1(CC)CCCC1.CCOS(=O)(=O)[O-] [1-butyl-1-ethylpyrrolidinium ethyl sulfate]
Conditions | mass density, [1] [kg/m3] | refractive index, [2] | speed of sound, [1] [m/s] | viscosity, [1] [mPa·s]
328.15 K | 1118.72 | 1.4671 | 1602 | 105.5
333.15 K | 1115.98 | 1.46581 | 1589.6 | 82.9
338.15 K | 1113.02 | 1.46454 | 1577.2 | 66.8
343.15 K | 1110.08 | 1.46315 | 1564.9 | 55.8

Conditions | Normal melting temperature [°C]
[1] | 53

CCCC[N+]1(C)CCCC1.COS(=O)(=O)[O-] [1-butyl-1-methylpyrrolidinium methyl sulfate]
Conditions | mass density, [1] [kg/m3] | refractive index, [2] | speed of sound, [1] [m/s] | viscosity, [1] [mPa·s]
298.15 K | 1166.69 | 1.47308 | 1741.6 | 467.5
303.15 K | 1163.58 | 1.47184 | 1727.3 | 334.9
308.15 K | 1160.46 | 1.47054 | 1713.6 | 245.6
313.15 K | 1157.4 | 1.46924 | 1700.3 | 184.1
318.15 K | 1154.4 | 1.46792 | 1687.4 | 139.2
323.15 K | 1151.42 | 1.46661 | 1674.7 | 107.8
328.15 K | 1148.42 | 1.46536 | 1662.2 | 86.1
333.15 K | 1145.42 | 1.46406 | 1649.8 | 69.2
338.15 K | 1142.44 | 1.46274 | 1637.6 | 56.4
343.15 K | 1139.47 | 1.46143 | 1625.5 | 46.6

CCOS(=O)(=O)[O-].CC[N+]1(C)CCCC1 [1-ethyl-1-methylpyrrolidinium ethyl sulfate]
Conditions | mass density, [1] [kg/m3] | refractive index, [2] | speed of sound, [1] [m/s] | viscosity, [1] [mPa·s]
308.15 K | 1189.67 | 1.47021 | 1750.2 | 172
313.15 K | 1186.53 | 1.46891 | 1737.5 | 134.9
318.15 K | 1183.41 | 1.4676 | 1725.2 | 107.5
323.15 K | 1180.3 | 1.46632 | 1713 | 86.8
328.15 K | 1177.22 | 1.46506 | 1701 | 71.2
333.15 K | 1174.15 | 1.46378 | 1689.2 | 59.1
338.15 K | 1171.11 | 1.46246 | 1677.3 | 49.5
343.15 K | 1168.07 | 1.46116 | 1665.7 | 42

Conditions | Normal melting temperature [°C]
[1] | 33

CC[N+](C)(CC)CC.COS(=O)(=O)[O-] [N,N-diethyl-N-methylethanaminium methyl sulfate]
Conditions | mass density, [1] [kg/m3] | refractive index, [2] | speed of sound, [1] [m/s] | viscosity, [1] [mPa·s]
308.15 K | 1166.44 | 1.46191 | 1853.5 | 218.5
313.15 K | 1163.4 | 1.46065 | 1839.7 | 165.6
318.15 K | 1160.36 | 1.45939 | 1826.3 | 127.7
323.15 K | 1157.34 | 1.45812 | 1813.1 | 100.3
328.15 K | 1154.32 | 1.45687 | 1800 | 79.7
333.15 K | 1151.33 | 1.45561 | 1787.1 | 64
338.15 K | 1148.34 | 1.45402 | 1774.2 | 53.42
343.15 K | 1145.36 | 1.45283 | 1761.5 | 44.92

Conditions | Normal melting temperature [°C]
[1] | 33
